Among the data in PMC10033154 (Journal of Molecular Structure, 2023) are IC50 values, retold here.

Each structure is given as a SMILES string.

The target in this assay is SARS-CoV-2 3CL protease (Severe acute respiratory syndrome coronavirus 2, UniProt P0DTD1). The assay can be described thus: FRET enzyme activity inhibition assay of SARS-CoV-2 3CLpro. Format: biochemical.

The molecule `COc1ccc(C=C[N+](=O)[O-])cc1OC` [compound f, 3,4-dimethoxyl-β-nitrostyrene] showed an IC50 of 5.07 µM.
